From article PMC12192727, “Strategies to Develop Na,K-ATPase-α4 Inhibitors as Male Contraceptives” (International Journal of Molecular Sciences, 2025)
Values after ≈ are worked out from the molar mass of the structure shown. Like-named read-outs stand apart in the source and are kept apart here.

Key:
NKAα4 = target: T1, NKAα4 (Rattus norvegicus, UniProt Q64541); assay: Na,K-ATPase activity assay, α4β1 expressed in Sf9 insect cells; assay type: biochemical
T1 construct: made in house; host or cells: Sf9 insect cells (baculovirus infection), cell homogenates
Method: (§1) The NKA α1 and α4 isoforms were expressed in Sf9 insect cells as previously described. Briefly, cells were cultured in suspension at 27 °C in Grace’s medium (JRH Biosciences, Lenexa, KS, USA) with 3.3 g/L of lactalbumin hydrolysate and 3.3 g/L of yeastolate and supplemented with 10% (v/v) fetal bovine serum, 100 units/mL of penicillin, 100 μg/mL of streptomycin, and 0.25 μg/mL of fungizone. For infections, cells were placed on 150 mm Petri dishes and infected with baculoviruses coding for the NKA α1β1 and α4β1 isozymes. Three days after infection, cells were scraped from the culture plates, centrifuged at 1500× g for 10 min, and washed twice in 10 mM imidazole hydrochloride (pH 7.5) and 1 mM EGTA (suspension buffer). Cells were then placed in a suspension buffer plus the addition of 0.32 M sucrose and stored at −20 °C or directly used for assays.
The Na,K-ATPase activity of insect cell homogenates was determined by measuring the initial rate of release of ^32Pi from γ[^32P]-ATP as described. The incubation medium (0.25 mL final volume) contained 120 mM NaCl, 30 mM KCl, 3 mM MgCl2, 0.2 mM EGTA, 30 mM Tris-HCl (pH 7.4), and different concentrations of the corresponding compounds. The assay was started by the addition of ATP with 0.2 μCi γ[^32P]-ATP (2 mM final concentration). After 30 min of incubation at 37 °C, the reaction was stopped with trichloroacetic acid, and 5% ammonium molybdate in 4 N H2SO4 was used to complex the ^32Pi released in the Na,K-ATPase reaction. The phosphomolybdate was extracted with isobutanol as described, and 170 μL of the organic phase was taken and subjected to liquid scintillation counting. Enzymatic activity was determined as the difference in ATP hydrolysis in the absence and presence of 1 mM ouabain.
Figure 6 Selectivity of 13 and 45 on NKAα4 over the NKAα1 isoform. […] The hydrolysis of ATP in the presence of saturating concentrations of Na^+, K^+, and Mg^2+ was measured using γ[^32P]-ATP. The curves represent the best fit of the experimental data to a single population of binding sites. Each value is the mean ± SEM of three independent experiments.

NKAα1 = target: T2, NKAα1 (Rattus norvegicus, UniProt P06685); assay: Na,K-ATPase activity assay, α1β1 expressed in Sf9 insect cells; assay type: biochemical; conditions: read-out: NKA Isoform Specificity (IC50 M) NKAα1
T2 construct: made in house; host or cells: Sf9 insect cells (baculovirus infection), cell homogenates
Method: as §1
The Na,K-ATPase activity of insect cell homogenates was determined by measuring the initial rate of release of ^32Pi from γ[^32P]-ATP as described. […] Enzymatic activity was determined as the difference in ATP hydrolysis in the absence and presence of 1 mM ouabain.
Figure 6 Selectivity of 13 and 45 on NKAα4 over the NKAα1 isoform. […] The hydrolysis of ATP in the presence of saturating concentrations of Na^+, K^+, and Mg^2+ was measured using γ[^32P]-ATP. […]

mouse sperm = assay: Sperm viability (Live/Dead assay); assay type: cell-based; conditions: 10 µM, one hour
Method: To assess whether 13 and 45 affected sperm viability, we treated mouse sperm with the compounds for one hour at 10 µM and determined the number of live and dead cells in the sample.
Figure 5 Cell viability after treatment with compounds 13 and 45. Mouse caudal epididymal sperm was subjected to a medium not supporting capacitation to 10 µM of 13 and 45. After one hour, sperm was subjected to the Live/Dead assay as per the manufacturer’s recommendations. Cells were counted as viable/non-viable and expressed as the mean ± SEM of three determinations.

physchem = assay type: physicochemical; conditions: PBS pH 7.4
Method: The stock solutions of 11 and 45 were prepared in DMSO at a concentration of 30 mM, and the stock solution of the control compound was prepared in DMSO at a concentration of 30 mM. Progesterone was used as a positive control in the assay. An amount of 10 µL of stock solution of each compound was placed in order into their proper 96-well rack, followed by adding 990 µL of PBS at pH 7.4 into each vial of the capless Solubility Sample plate. This study was performed in duplicate. One stir stick was added to each vial and then sealed using a molded PTDE/SIL 96-Well Plate Cover (Pharmaron, Waltman, MA, USA). The Solubility Sample plate was transferred to the Thermomixer Comfort plate shaker and incubated at RT for 2 h with shaking at 1100 rpm. After 2 h of incubation, stir sticks were removed using a big magnet, and all samples from the Solubility Sample plate were transferred into the filter plate. All the samples were filtered using a vacuum manifold. The filtered samples were diluted with methanol. The soluble fraction (filtrate) was then analyzed by LC-MS/MS, and the compound concentration was determined using 0.3 μM standard solutions prepared from DMSO stocks. The experimental details are reported in the Supporting Information (Table S1). […]
Table S1 . Solubility Results of Test C ompound and Control C ompound in […]
Compound ID Solubility (µM)
Preparation of Stock Solutions: The stock solutions of test compounds were prepared in DMSO at the concentration of 30 mM, and the stock solution of control compound was prepared in DMSO at the concentration of 30 mM.
Progesterone was used as positive control in the assay.
Solubility Determination: 10 µL stock solution of each compound was placed in order into their proper 96-well rack, followed by adding 990 µL of PBS at pH 7.4 into each vial of the cap-less Solubility Sample plate. This study was performed in duplicate. One stir stick was added to each vial and then vials were sealed using a molded PTDE/SIL 96-Well Plate Cover. The Solubility Sample plate was transferred to the Thermomixer Comfort plate shaker and incubated at RT for 2 hours with shaking at 1100 rpm. After 2 hours incubation, stir sticks were removed using a big magnet and all samples from the Solubility Sample plate were transferred into the filter plate. All the samples were filtered by using the Vacuum Manifold. The filtered samples were diluted with methanol. The dilution factor might be changed according to the solubility value and the LC/MS signal response. To prepare 0.3 µM Standards (STD), 30 mM DMSO compound stock solutions were diluted with DMSO to 300 µM and then diluted with methanol to obtain 0.3 µM STDs. Samples were analyzed by LC-MS/MS. All calculations were carried out using Microsoft Excel. The solution filtered was analyzed and quantified against a standard of known concentration in DMSO using LC coupled with Mass spectral peak identification and quantitation. The solubility values of the test compounds were calculated as follow DF means the dilution factor
1. Chromatographic conditions
Apparatus: Triple QuadTM 5500 instrument from AB Inc (Canada) with an ESI interface Column: XSelect Hss T3 2.5µ (2.1×50 mm) Column XP coupled with preguard column Mobile phase: 0.1% formic acid in acetonitrile (A) and 0.1% formic acid in water (B) […]

[1] = α4β1 in Sf9 insect cells, ± SEM of three experiments
[2] = aqueous buffer, kinetic from dmso stock, read-out: Solubility

T1 sequence (Q64541 whole entry, other chains not shown): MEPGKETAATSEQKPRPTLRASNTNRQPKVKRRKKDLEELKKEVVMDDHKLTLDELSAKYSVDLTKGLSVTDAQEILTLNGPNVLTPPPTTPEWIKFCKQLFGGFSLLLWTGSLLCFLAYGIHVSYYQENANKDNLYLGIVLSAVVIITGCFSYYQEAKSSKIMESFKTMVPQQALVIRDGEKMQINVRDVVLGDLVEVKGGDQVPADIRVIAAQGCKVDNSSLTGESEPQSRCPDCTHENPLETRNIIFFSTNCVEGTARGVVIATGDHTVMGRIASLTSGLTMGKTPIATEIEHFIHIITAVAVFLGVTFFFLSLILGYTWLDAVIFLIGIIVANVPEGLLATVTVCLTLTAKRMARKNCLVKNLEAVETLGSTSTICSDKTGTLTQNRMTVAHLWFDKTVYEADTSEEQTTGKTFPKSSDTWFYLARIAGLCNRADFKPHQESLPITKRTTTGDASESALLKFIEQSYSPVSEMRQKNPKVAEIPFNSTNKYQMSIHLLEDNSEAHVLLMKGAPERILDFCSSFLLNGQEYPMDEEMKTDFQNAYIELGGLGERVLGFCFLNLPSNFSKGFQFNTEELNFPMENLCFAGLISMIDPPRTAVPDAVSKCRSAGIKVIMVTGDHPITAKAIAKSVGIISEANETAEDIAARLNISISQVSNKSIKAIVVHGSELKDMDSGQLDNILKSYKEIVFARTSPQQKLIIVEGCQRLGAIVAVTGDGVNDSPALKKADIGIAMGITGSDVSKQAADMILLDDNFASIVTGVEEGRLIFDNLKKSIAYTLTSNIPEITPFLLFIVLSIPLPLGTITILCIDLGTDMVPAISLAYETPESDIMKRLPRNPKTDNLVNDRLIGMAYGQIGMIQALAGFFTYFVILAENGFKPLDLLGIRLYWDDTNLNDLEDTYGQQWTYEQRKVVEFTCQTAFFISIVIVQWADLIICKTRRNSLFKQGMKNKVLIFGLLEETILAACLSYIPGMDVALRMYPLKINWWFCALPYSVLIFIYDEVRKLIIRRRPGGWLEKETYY

Row | Compound | NKA Isoform Specificity (IC50 M) NKAα4 (NKAα4; [1]) | IC50 (NKAα4; α4β1 in Sf9 insect cells, ± SEM of three experiments, read-out: NKA Isoform Specificity (IC50 M) NKAα4) [nM] | IC50 (NKAα1) [µM] | Sperm viability (mouse sperm) | Solubility (physchem) | Solubility (physchem; [2]) [µM] | IC50 (NKAα4) [nM]
1 | CC12CCC(=O)C=C1CCCC2n1cc(-c2ccccc2)nn1 (stereo not drawn) [Compound 45, 4a-Methyl-5-(4-phenyl-1H-1,2,3-triazol-1-yl)-4,4a,5,6,7,8-hexahydronaphthalen-2(3H)-one] | nanomolar range | 2.7 | > 100 | the same as that of the untreated controls | good | 256 (≈ 78.7 µg/mL) | –
2 | C[C@]12CC[C@H]3[C@@H](CC=C4C[C@@H](O)CC[C@@]43C)[C@@H]1CC[C@@H]2c1cn(Cc2ccccc2)nn1 [Compound 13, (3S,8S,9S,10R,13S,14S,17S)-17-(1-Benzyl-1H-1,2,3-triazol-4-yl)-10,13-dimethyl-2,3,4,7,8,9,10,11,12,13,14,15,16,17-tetradecahydro-1H-cyclopenta[a]phenanthren-3-ol] | nanomolar range | – | > 100 | the same as that of the untreated controls | poor | 0.3 (≈ 0.129 µg/mL) | 0.1
